Like-named read-outs stand apart in the source and are kept apart here.

Experiment [1] relates to test strain 923 pPvra-lux (USA300 MRSA). The experiment is described as follows: Primary screen, relative growth in presence of oxacillin. Particulars: compound 10 μM with oxacillin 2 μg/mL, absorbance 24 h, <0.50 = dead cells = hit.
Experiment [2] concerns vraSR promoter (Pvra-lux reporter in strain 923). The experiment is described as follows: Primary screen, relative luminescence (vraSR expression).
Where [3] appears, read: primary screen, compound 10 μM with oxacillin 2 μg/mL, <0.50 = vraSR repressed = hit.

Consider `COc1ccccc1-c1nnc(NC(=O)c2sc3ccccc3c2Cl)o1` [F1374-253], for which, in experiment [1], the “RG avg (relative growth)” value came to 0.04. Further, the “RL avg (relative luminescence)” value in experiment [2] (setting [3]) is 0.32.
For `O=C(Nc1nnc(-c2ccncc2)o1)c1ccc(Oc2ccccc2)cc1` [F0608-1161], in experiment [1], the “RG avg (relative growth)” value is reported as 0.00. The “RL avg (relative luminescence)” value in experiment [2] (setting [3]) is given as −0.07.
The corresponding values for `CCN(CC)S(=O)(=O)c1ccc(C(=O)Nc2nnc(-c3cc(C)ccc3C)o2)cc1` [F2518-298] are −0.02 and 0.06.
The corresponding values for `O=C(Nc1nnc(C2COc3ccccc3O2)o1)c1ccc(S(=O)(=O)N2CCc3ccccc3C2)cc1` (centres unmarked) [F0608-728] are −0.02 and −0.01.
The corresponding values for `O=C(Nc1nnc(-c2ccccn2)o1)c1c(F)cccc1F` [F0608-895] are 0.03 and −0.06.
For `Cc1ccc(NCC(O)Cn2c3ccc(Br)cc3c3cc(Br)ccc32)cc1` (centres unmarked) [F0191-4604], the “RG avg (relative growth)” value in experiment [1] was −0.07. The “RL avg (relative luminescence)” value in experiment [2] (setting [3]) is recorded as −0.06.
`CC(C)Cn1c(N)c(C(=O)NCc2cccs2)c2nc3ccccc3nc21` [F3225-3356]: in experiment [1], the “RG avg (relative growth)” value was 0.39. Moreover, the “RL avg (relative luminescence)” value in experiment [2] (setting [3]) is on record as 0.01.
The corresponding values for `O=C(Nc1nnc(-c2ccc(Cl)s2)o1)c1nc2ccccc2s1` [F1374-1083] are 0.02 and 0.49.
In the same order, the values of `Cc1ccc(-c2nnc(NC(=O)c3ccc(Cl)cc3Cl)o2)c(C)c1` [F2518-166] are −0.02 and −0.10.
The corresponding values for `CCOc1cc(C(=O)Nc2nnc(-c3ccccc3SC)o2)cc(OCC)c1OCC` [F2645-99] are 0.09 and 0.43.
As for `O=C(Nc1nnc(-c2ccc(F)cc2)o1)c1ccc(Oc2ccccc2)cc1` [F1374-188], in experiment [1], the “RG avg (relative growth)” value is recorded as 0.02. In addition, in experiment [2] (setting [3]), the “RL avg (relative luminescence)” value amounted to 0.33.
The corresponding values for `CC1CC(C)CN(S(=O)(=O)c2ccc(C(=O)Nc3nnc(-c4ccc(Cl)s4)o3)cc2)C1` (centres unmarked) [F0559-376] are −0.08 and −0.02.
In the same order, the values of `O=C(Nc1nnc(-c2ccc3c(c2)OCCO3)o1)c1cccc(Cl)c1` [F0608-123] are −0.02 and −0.04.
The corresponding values for `COc1ccccc1-c1nnc(NC(=O)c2ccc(Cc3ccccc3)cc2)o1` [F1374-276] are 0.01 and 0.39.
As to `COc1ccccc1-c1nnc(NC(=O)c2cc(-c3cccs3)nc3ccccc23)o1` [F1374-255], the “RG avg (relative growth)” value in experiment [1] was 0.00. Moreover, the “RL avg (relative luminescence)” value in experiment [2] (setting [3]) turned out to be 0.36.
Consider `Cc1ccc(C)c(-c2nnc(NC(=O)c3ccc4c(c3)CCCC4)o2)c1` [F2518-373], for which the “RG avg (relative growth)” value in experiment [1] is listed as 0.05. In experiment [2] (setting [3]), the “RL avg (relative luminescence)” value is listed as −0.05.
In the case of `O=C(Nc1nnc(-c2ccc3c(c2)CCCC3)o1)c1sc2ccccc2c1Cl` [F0608-665], in experiment [1], the “RG avg (relative growth)” value was 0.19. Moreover, the “RL avg (relative luminescence)” value in experiment [2] (setting [3]) is recorded as −0.01.
The corresponding values for `O=C(Nc1nnc(-c2ccc(C(F)(F)F)cc2)o1)c1cc2ccccc2o1` [F1374-2134] are 0.20 and 0.38.
On to `Cc1ccc(C)c(-c2nnc(NC(=O)c3ccc4ncsc4c3)o2)c1` [F2518-414], for which the “RG avg (relative growth)” value in experiment [1] worked out at 0.01. For the same compound, the “RL avg (relative luminescence)” value in experiment [2] (setting [3]) is −0.02.
On to `Cc1ccc(-c2nnc(NC(=O)c3cccc(C(F)(F)F)c3)o2)c(C)c1` [F2518-189], for which, in experiment [1], the “RG avg (relative growth)” value was determined as 0.01. The “RL avg (relative luminescence)” value in experiment [2] (setting [3]) is recorded as −0.02.
In the same order, the values of `O=C(Nc1nnc(-c2cc(Cl)sc2Cl)o1)c1ccc(F)cc1F` [F1374-2707] are 0.00 and 0.32.
The corresponding values for `O=C(Nc1nc(-c2ccccn2)cs1)c1cccc(Oc2ccccc2)c1` [F0447-264] are −0.03 and −0.05.
The corresponding values for `CCN(c1ccccc1)S(=O)(=O)c1ccc(C(=O)Nc2nnc(-c3ccccc3SC)o2)cc1` [F2645-115] are 0.13 and 0.45.
For the compound `O=C(Nc1nnc(-c2ccc(F)cc2)o1)c1nc2ccccc2s1` [F1374-138], the “RG avg (relative growth)” value in experiment [1] turned out to be 0.00. Also, the “RL avg (relative luminescence)” value in experiment [2] (setting [3]) is 0.40.
For `O=C(Nc1nnc(-c2ccc(Br)s2)o1)c1ccc(Cl)s1` [F5093-40], the “RG avg (relative growth)” value in experiment [1] was determined as 0.03. The “RL avg (relative luminescence)” value in experiment [2] (setting [3]) is on record as −0.02.
In the same order, the values of `O=C(Nc1nnc(-c2ccncc2)o1)c1ccc(-c2ccccc2)cc1` [F0608-1080] are 0.03 and −0.04.
The corresponding values for `Cc1onc(-c2ccccc2Cl)c1C(=O)Nc1nnc(-c2cc(Cl)sc2Cl)o1` [F1374-2706] are 0.02 and 0.25.
With `COc1ccccc1-c1nnc(NC(=O)c2ccc(-c3ccccc3)cc2)o1` [F1374-220], the “RG avg (relative growth)” value in experiment [1] was 0.01. Besides, the “RL avg (relative luminescence)” value in experiment [2] (setting [3]) is 0.35.
The corresponding values for `CCCCN(C)S(=O)(=O)c1ccc(C(=O)Nc2nnc(-c3ccc(Br)s3)o2)cc1` [F5093-101] are −0.02 and −0.04.
The corresponding values for `CC(C)n1nccc1C(=O)Nc1nnc(-c2cc(Cl)sc2Cl)o1` [F1374-2902] are 0.00 and 0.33.
The corresponding values for `CC1CC(C)CN(S(=O)(=O)c2ccc(C(=O)Nc3nnc(-c4ccc(F)cc4)o3)cc2)C1` (centres unmarked) [F0559-106] are −0.07 and −0.07.
`CCOc1cc(-c2nnc(NC(=O)c3ccc4ccccc4c3)o2)cc(OCC)c1OCC` [F2517-182]: the “RG avg (relative growth)” value in experiment [1] was found to be 0.46. Further, the “RL avg (relative luminescence)” value in experiment [2] (setting [3]) was −0.04.
The corresponding values for `COc1cc(-c2nnc(NC(=O)c3cccc(Cl)c3)o2)cc(OC)c1OC` [F2517-7] are −0.03 and −0.11.
In the same order, the values of `Cc1ccc(C)c(-c2nnc(NC(=O)c3ccc(Br)s3)o2)c1` [F2518-329] are 0.00 and −0.11.
Take `O=C(Nc1nnc(-c2cc(Cl)ccc2Cl)o1)c1ccc(Br)s1` [F2518-41]: the “RG avg (relative growth)” value in experiment [1] is 0.00. In addition, the “RL avg (relative luminescence)” value in experiment [2] (setting [3]) is reported as −0.03.
In the same order, the values of `CC1CN(S(=O)(=O)c2ccc(C(=O)Nc3nnc(-c4ccc(F)cc4)o3)cc2)CC(C)O1` (centres unmarked) [F0559-107] are −0.05 and −0.06.
The corresponding values for `COc1cc(OC)cc(-c2nnc(NC(=O)c3ccc(Cl)s3)o2)c1` [F1374-666] are 0.05 and 0.34.
As to `COc1cccc2cc(C(=O)Nc3nnc(-c4cc(Cl)sc4Cl)o3)oc12` [F1374-2680], in experiment [1], the “RG avg (relative growth)” value came out at 0.00. For the same compound, the “RL avg (relative luminescence)” value in experiment [2] (setting [3]) is 0.42.
In the same order, the values of `O=C(Nc1nnc(-c2ccc3c(c2)CCCC3)o1)c1ccc(Cl)cc1Cl` [F0608-661] are 0.11 and −0.04.
Take `O=C(Nc1nnc(-c2ccc3c(c2)CCCC3)o1)c1ccc2c(c1)OCCO2` [F0608-601]: the “RG avg (relative growth)” value in experiment [1] was −0.05. For the same compound, the “RL avg (relative luminescence)” value in experiment [2] (setting [3]) is −0.12.
In the same order, the values of `O=C(Nc1nnc(-c2ccc(Br)cc2)o1)c1ccc2c(c1)CCCC2` [F2518-517] are 0.01 and −0.08.
The corresponding values for `COc1cc(-c2nnc(NC(=O)c3ccc(S(=O)(=O)N(C)c4ccccc4)cc3)o2)cc(OC)c1OC` [F0559-307] are −0.04 and −0.08.
In the same order, the values of `COc1ccc(-c2nnc(NC(=O)c3cccc(C(F)(F)F)c3)o2)c(OC)c1` [F1374-562] are 0.02 and 0.38.
As for `O=C(Nc1nnc(-c2ccc(Br)s2)o1)c1nc2ccccc2s1` [F5093-37], in experiment [1], the “RG avg (relative growth)” value was determined as 0.02. Further, in experiment [2] (setting [3]), the “RL avg (relative luminescence)” value was −0.03.
The corresponding values for `O=C(Nc1nnc(-c2cc(Cl)ccc2Cl)o1)c1cc(-c2ccccc2)nc2ccccc12` [F2518-55] are 0.00 and −0.02.
In the same order, the values of `O=C(Nc1nnc(-c2ccc(Br)cc2)o1)c1cc(Cl)ccc1Cl` [F2518-481] are 0.00 and −0.05.
In the same order, the values of `COc1ccc(-c2nnc(NC(=O)c3ccc(S(=O)(=O)N(C)Cc4ccccc4)cc3)o2)c(OC)c1` [F0559-398] are −0.07 and −0.11.
`COc1cc(OC)cc(C(=O)Nc2nnc(-c3ccc(Br)cc3)o2)c1` [F2518-451]: in experiment [1], the “RG avg (relative growth)” value is listed as −0.01. The “RL avg (relative luminescence)” value in experiment [2] (setting [3]) is listed as −0.10.
The corresponding values for `Cc1ccc(-c2nnc(NC(=O)c3ccc(S(=O)(=O)N4CCCCC4)cc3)o2)cc1C` [F2767-26] are 0.03 and −0.05.
For `COc1ccccc1-c1nnc(NC(=O)c2ccc(S(=O)(=O)N(Cc3ccccc3)C(C)C)cc2)o1` [F0559-148], the “RG avg (relative growth)” value in experiment [1] was 0.02. For the same compound, the “RL avg (relative luminescence)” value in experiment [2] (setting [3]) is on record as −0.04.
On to `C=CCN(CC=C)S(=O)(=O)c1ccc(C(=O)Nc2nnc(-c3cc(OC)c(OC)c(OC)c3)o2)cc1` [F0559-279], for which the “RG avg (relative growth)” value in experiment [1] is 0.40. In addition, the “RL avg (relative luminescence)” value in experiment [2] (setting [3]) is reported as −0.09.
For `CCOc1ccc(C(=O)Nc2nnc(-c3ccc(Cl)s3)o2)cc1` [F1374-1129], in experiment [1], the “RG avg (relative growth)” value stood at 0.00. In experiment [2], the “RL avg (relative luminescence)” value amounted to 0.47.

Source of the values: patent US9675592B2, “Methods and compositions for bacteria infections” (priority 2013, dated 2017).
